Experimental data taken from ChEMBL document CHEMBL5154927, “Discovery of Novel Bicyclic Phenylselenyl-Containing Hybrids: An Orally Bioavailable, Potential, and Multiacting Class of Estrogen Receptor Modulators against Endocrine-Resistant Breast Cancer” (J Med Chem, 2022).
pIC50: −log10 of the molar value. Active and inactive are the calls of the source. No cut-off for these calls is given here.

Tests used:
[1] = Selectivity index, ratio of IC50 for human MCF-10A cells to IC50 for human MCF-7 cells; format: toxicity; details: MCF-10A cells and MCF-7 cells, read-out: Ratio IC50
MCF7 [2] = assay: cells; details: Homo sapiens, MCF7, 72 h
Description: Antiproliferative activity against human MCF7 cells assessed as reduction in cell viability measured after 72 hrs by Cell Counting Kit-8 assay

[3] = Antiproliferative activity against human MCF-10A cells assessed as reduction in cell viability measured after 72 hrs by Cell Counting Kit-8 assay; format: toxicity, cell-based
MDA-MB-231 = assay: cells; details: Homo sapiens, MDA-MB-231, 72 h
Description: Antiproliferative activity against human MDA-MB-231 cells assessed as reduction in cell viability measured after 72 hrs by Cell Counting Kit-8 assay

[4] = Antiproliferative activity against tamoxifen-resistant human LCC2 cells assessed as reduction in cell viability measured after 72 hrs by Cell Counting Kit-8 assay; format: functional, cell-based; details: LCC2, 72 h
[5] = molecular target: Estrogen receptor beta (Homo sapiens) (UniProt Q92731); assay: Relative binding affinity to human ERbeta measured after 2 hrs by competitive fluorometric binding assay relative to estradiol
Homo sapiens = species on record: Homo sapiens; assay: Selectivity ratio of relative binding affinity for human ERalpha to relative binding affinity for human ERbeta
[6] = molecular target: T1, Hexokinase-1 (Homo sapiens) (UniProt P19367); assay: Binding affinity to hexokinase-1 in human MCF7 cell lysate assessed as HK-1 pull down by western blotting based Co-immunoprecipitation assay; format: subcellular; details: filed as antagonist
T1 sequence (whole entry): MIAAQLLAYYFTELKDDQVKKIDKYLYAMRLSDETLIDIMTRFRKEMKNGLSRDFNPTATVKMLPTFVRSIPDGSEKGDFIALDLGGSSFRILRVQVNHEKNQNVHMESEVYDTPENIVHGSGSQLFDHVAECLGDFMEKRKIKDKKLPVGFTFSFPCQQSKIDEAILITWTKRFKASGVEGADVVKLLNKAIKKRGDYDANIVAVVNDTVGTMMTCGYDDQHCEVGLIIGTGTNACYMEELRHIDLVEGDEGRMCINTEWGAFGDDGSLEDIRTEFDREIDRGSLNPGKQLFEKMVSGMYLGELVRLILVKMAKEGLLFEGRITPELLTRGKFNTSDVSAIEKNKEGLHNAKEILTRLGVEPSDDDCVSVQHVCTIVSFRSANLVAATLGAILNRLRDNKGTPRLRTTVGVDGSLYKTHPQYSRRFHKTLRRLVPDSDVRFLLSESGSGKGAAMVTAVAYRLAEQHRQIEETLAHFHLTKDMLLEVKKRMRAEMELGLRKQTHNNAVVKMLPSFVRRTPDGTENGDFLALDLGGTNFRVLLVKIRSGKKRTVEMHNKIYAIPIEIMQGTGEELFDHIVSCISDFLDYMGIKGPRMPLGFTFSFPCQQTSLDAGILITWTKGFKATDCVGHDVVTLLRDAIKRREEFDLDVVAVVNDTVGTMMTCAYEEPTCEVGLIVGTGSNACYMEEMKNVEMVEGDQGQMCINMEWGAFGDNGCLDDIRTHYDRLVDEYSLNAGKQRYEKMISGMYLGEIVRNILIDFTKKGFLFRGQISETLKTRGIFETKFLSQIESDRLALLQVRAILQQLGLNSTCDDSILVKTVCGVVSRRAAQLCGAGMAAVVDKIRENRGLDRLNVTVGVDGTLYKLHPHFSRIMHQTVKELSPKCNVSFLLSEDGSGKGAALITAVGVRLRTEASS

MCF7 [7] = assay: Antitumor activity against human MCF7 cells xenografted in BALB/C mouse assessed as decrease in cell proliferation at 20 mg/kg, po by Ki67 staining based immunohistochemical analysis; format: functional, organism-based
MCF7 [8] = assay: Antitumor activity against human MCF7 cells xenografted in BALB/C mouse assessed as increase in tumor necrosis area at 20 mg/kg, po […]; format: functional, organism-based
MCF7 [9] = assay: Induction of apoptosis in human MCF7 cells at 20 uM incubated for 48 hrs by annexin V-FITC staining based flow cytometry; format: functional, cell-based

Sequence of Estrogen receptor beta (Homo sapiens) (Q92731 whole entry): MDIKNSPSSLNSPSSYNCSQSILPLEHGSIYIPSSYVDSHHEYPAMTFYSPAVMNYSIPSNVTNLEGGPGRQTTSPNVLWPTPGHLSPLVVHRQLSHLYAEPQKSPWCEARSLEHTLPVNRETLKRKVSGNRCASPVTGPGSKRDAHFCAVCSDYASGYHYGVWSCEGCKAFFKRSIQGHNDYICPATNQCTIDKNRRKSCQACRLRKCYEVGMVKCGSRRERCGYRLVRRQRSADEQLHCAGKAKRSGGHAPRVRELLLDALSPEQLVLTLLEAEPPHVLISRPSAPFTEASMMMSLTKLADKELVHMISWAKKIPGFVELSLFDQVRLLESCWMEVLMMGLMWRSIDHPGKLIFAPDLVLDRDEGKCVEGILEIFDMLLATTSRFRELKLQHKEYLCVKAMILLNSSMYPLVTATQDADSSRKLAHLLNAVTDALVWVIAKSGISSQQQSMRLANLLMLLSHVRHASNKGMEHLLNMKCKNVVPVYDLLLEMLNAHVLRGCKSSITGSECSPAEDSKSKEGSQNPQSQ

| Structure (SMILES) | selectivity ratio [1] | pIC50 (MCF7 [2]) | IC50 at 72 h [3] | pIC50 (MDA-MB-231) | pIC50 [4] | RBA [5] | Ratio (Homo sapiens) | Activity [6] | Activity (MCF7 [7]) | Activity (MCF7 [8]) | Activity (MCF7 [9]) |
| --- | --- | --- | --- | --- | --- | --- | --- | --- | --- | --- | --- |
| COc1cccc(OS(=O)(=O)C2CC3OC2C(c2ccc(O)cc2)=C3c2ccc([Se]c3ccccc3)cc2)c1 (centres undefined) | 27.1 | 6.18 | 17.9 µM | 4.98 | 5.32 |  |  |  |  |  |  |
| O=S(=O)(Oc1ccc(O)cc1)C1CC2OC1C(c1ccc(O)cc1)=C2c1ccc([Se]c2ccccc2)cc1 (centres undefined) | 8.54 | 5.71 | 16.7 µM | 4.91 | < 4.51 |  |  |  |  |  |  |
| Cc1ccc(OS(=O)(=O)C2CC3OC2C(c2ccc([Se]c4ccccc4)cc2)=C3c2ccc(O)cc2)cc1 (centres undefined) | 45.1 | 6.39 | 18.5 µM | 5.07 | 5.17 |  |  |  |  |  |  |
| O=S(=O)(Oc1cccc(C(F)(F)F)c1)C1CC2OC1C(c1ccc([Se]c3ccccc3)cc1)=C2c1ccc(O)cc1 (centres undefined) | 75.9 | 6.27 | 41 µM | 4.77 | 5.06 |  |  |  |  |  |  |
| O=S(=O)(Oc1ccc(Cl)cc1)C1CC2OC1C(c1ccc([Se]c3ccccc3)cc1)=C2c1ccc(O)cc1 (centres undefined) | 186 | 6.85 | 26.1 µM | 4.96 | 5.16 |  |  |  |  |  |  |
| O=C(CCC[C@@H]1SC[C@@H]2NC(=O)N[C@@H]21)Nc1cccc2c(OS(=O)(=O)C3CC4OC3C(c3ccc(O)cc3)=C4c3ccc(O)cc3)cccc12 (some centres undefined) |  |  |  |  |  | 0.1% | 3.4 | Active |  |  |  |
| O=S(=O)(Oc1ccc(C(F)(F)F)cc1)C1CC2OC1C(c1ccc([Se]c3ccccc3)cc1)=C2c1ccc(O)cc1 (centres undefined) | 41.2 | 6.35 | 18.5 µM | 4.56 |  |  |  |  |  |  |  |
| CC/C(=C(\c1ccccc1)c1ccc(OCCN(C)C)cc1)c1ccccc1 |  |  |  |  |  |  |  |  | Active | Active |  |
| O=S(=O)(Oc1cccc(O)c1)C1CC2OC1C(c1ccc(O)cc1)=C2c1ccc([Se]c2ccccc2)cc1 (centres undefined) | 106 | 7.15 | 7.41 µM | 5.15 | 5.54 |  |  |  |  |  |  |
| O=S(=O)(Oc1ccc([Se]c2ccccc2)cc1)C1CC2OC1C(c1ccc(O)cc1)=C2c1ccc(O)cc1 (centres undefined) | > 75 | 6.10 | > 60 µM | 4.50 | 4.69 |  |  |  |  |  |  |
| O=S(=O)(Oc1ccccc1)C1CC2OC1C(c1ccc(O)cc1)=C2c1ccc([Se]c2ccccc2)cc1 (centres undefined) | > 375 | 6.80 | > 60 µM | < 4.22 |  |  |  |  |  |  |  |
| O=S(=O)(Oc1ccc(C(F)(F)F)cc1)C1CC2OC1C(c1ccc(O)cc1)=C2c1ccc([Se]c2ccccc2)cc1 (centres undefined) | 94.3 | 6.82 | 14.1 µM | 4.66 | < 4.51 |  |  |  |  |  |  |
| O=S(=O)(Oc1ccc(Cl)cc1)C1CC2OC1C(c1ccc(O)cc1)=C2c1ccc([Se]c2ccccc2)cc1 (centres undefined) | 86.4 | 6.43 | 32 µM | 4.96 | 5.18 |  |  |  |  |  |  |
| O=S(=O)(Oc1cccc(Cl)c1)C1CC2OC1C(c1ccc([Se]c3ccccc3)cc1)=C2c1ccc(O)cc1 (centres undefined) | 97.8 | 6.74 | 17.6 µM | 4.38 | < 4.51 |  |  |  |  |  |  |
| COc1ccc(OS(=O)(=O)C2CC3OC2C(c2ccc(O)cc2)=C3c2ccc([Se]c3ccccc3)cc2)cc1 (centres undefined) | > 8.04 | 5.13 | > 60 µM | < 4.22 |  |  |  |  |  |  |  |
| O=S(=O)(Oc1cccc(Br)c1)C1CC2OC1C(c1ccc([Se]c3ccccc3)cc1)=C2c1ccc(O)cc1 (centres undefined) | 12.7 | 5.87 | 17.3 µM | 4.72 | < 4.51 |  |  |  |  |  |  |
| Cc1cccc(OS(=O)(=O)C2CC3OC2C(c2ccc([Se]c4ccccc4)cc2)=C3c2ccc(O)cc2)c1 (centres undefined) | 255 | 6.92 | 30.6 µM | 4.90 | 5.07 |  |  |  |  |  |  |
| O=S(=O)(Oc1cccc([Se]c2ccccc2)c1)C1CC2OC1C(c1ccc(O)cc1)=C2c1ccc(O)cc1 (centres undefined) | 29.4 | 5.77 | 50.3 µM | 4.59 | < 4.51 |  |  |  |  |  |  |
| COc1ccc(OS(=O)(=O)C2CC3OC2C(c2ccc([Se]c4ccccc4)cc2)=C3c2ccc(O)cc2)cc1 (centres undefined) | 138 | 6.68 | 29.1 µM | 5.01 | 5.23 |  |  |  |  |  |  |
| CC/C(=C(\c1ccc(O)cc1)c1ccc(OCCN(C)C)cc1)c1ccccc1 [AFIMOXIFENE] |  |  |  | 4.73 | 4.65 |  |  |  |  |  |  |
| Cc1ccc(OS(=O)(=O)C2CC3OC2C(c2ccc(O)cc2)=C3c2ccc([Se]c3ccccc3)cc2)cc1 (centres undefined) | 4.6 | 5.40 | 18.3 µM | 5.09 | 5.22 |  |  |  |  |  |  |
| O=S(=O)(Oc1ccc(Br)cc1)C1CC2OC1C(c1ccc([Se]c3ccccc3)cc1)=C2c1ccc(O)cc1 (centres undefined) | 90.8 | 6.51 | 28.2 µM | 4.74 | 4.60 |  |  |  |  |  |  |
| O=S(=O)(Oc1ccccc1)C1CC2OC1C(c1ccc(O)cc1)=C2c1ccc(O)cc1 (centres undefined) | > 4.11 | 4.84 | > 60 µM | 4.49 | < 4.51 |  |  |  |  |  | Active |
| O=S(=O)(Oc1cccc2ccccc12)C1CC2OC1C(c1ccc(O)cc1)=C2c1ccc([Se]c2ccccc2)cc1 (centres undefined) | > 53.1 | 5.95 | > 60 µM | 4.34 |  |  |  |  |  |  |  |
| O=S(=O)(Oc1ccc(Br)cc1)C1CC2OC1C(c1ccc(O)cc1)=C2c1ccc([Se]c2ccccc2)cc1 (centres undefined) | 75.6 | 6.26 | 43.2 µM | 4.76 | < 4.51 |  |  |  |  |  |  |
